Results as given in US20210261642A1, “SOLUBILITY OF GLP-1 PEPTIDE” (Novo Nordisk A/S, priority 2017, published 2021).

Assay: Assay (I): Determination of Solubility (96-well plate, pH 3.0-11.0, organic solvent 0-70% w/w, UV absorption at 280 nm)
Format: physicochemical
Settings: Method 1
Experimental: Assay (I): Determination of Solubility
96-Well Plate Preparation
96-well plates containing target peptide in a solid form were prepared in one of two ways:
Method 1 (evaporation): Addition of 100 μl stock solution of said peptide at a concentration of 4-6 mg/ml to each well of a 96-well half area plate (150 μl well size). Subsequently the solvent was evaporated by applying a vacuum until the solvent was completely removed.
Method 2 (precipitation): Addition of a certain volume of a stock solution of said peptide containing to each well of a 96-well half area plate followed by the addition of a certain volume of concentrated phosphoric acid to obtain a pH of 4.6 followed by addition of a certain volume of ethanol resulting in a final ethanol concentration of 20% v/v. Subsequently the plate was stored at 4° C. for 1 h and then centrifuged at 4,000 rpm for 20 min. Finally the supernatant was removed. The concentration of the stock solution was chosen in a way that the final amount of peptide after supernatant removal was >0.4 mg per well.
In both cases the stock solution was prepared by adding de-ionized water to a certain amount of powder of said peptide followed by a stepwise addition of small amounts of a concentrated sodium hydroxide solution until said peptide was completely in solution.
To determine solubility of a target peptide at different pH and organic solvent concentrations, two different buffer systems were used in independent experiments to cover the whole range from pH 3.0 to pH 11.0. Buffer system 1 covers pH 3.0-7.5 and buffer system 2 covers pH 7.5-11.0. For each buffer system 96 different solvent compositions were premixed in the following way: • 1. A low pH buffer (adjusted to either pH 3.0 or pH 7.5) and a high pH buffer (adjusted to either pH 7.5 or pH 11.0) were mixed at 8 different ratios to obtain values between pH 3.0 and pH 7.5 or pH 7.5 and pH 11.0, respectively. The total volume after mixing was 300 μl. • 2. 12 different amounts of organic solvent were then added to these buffers to obtain organic solvent (e.g. ethanol) concentrations between 0 and 70% w/w. • 3. Water was then added to obtain a total weight of 1.0 g of solvent in each well.
After preparing the 96 different solvent systems, 100 μl of each system was transferred to the 96-well plate containing the solid form of the target peptide (prepared as described in the section “96-well plate preparation”). The plate was then stored at a given temperature (between 5° C. and 70° C.) for a given time on a rotating shaker set to 400 rpm. At regular time intervals the plate was centrifuged (4,000 rpm for 10 min) and a 10 μl sample was taken from each well. The samples were then analysed by UV absorption at 280 nm for peptide quantification. Peptide concentration results are given as UV absorption at 280 nm of the sample subtracted UV absorption at 280 nm of a well comprising 10 μl water.
The buffers used were as follows: • Buffer system 1 (for the pH range from pH 3.0-7.5)
• Buffer system 2 (for the pH ranae from pH 7.5-11.0)
Solubility of liraglutide was determined using Assay (I) described herein. Liraglutide was prepared using Method 1 (evaporation) or Method 2 (precipitation) as described in subsection “96-well plate preparation”.

CCCCCCCCCCCCCCCC(=O)N[C@@H](CCC(=O)NCCCC[C@H](NC(=O)[C@H](C)NC(=O)[C@H](C)NC(=O)[C@H](CCC(N)=O)NC(=O)CNC(=O)[C@H](CCC(=O)O)NC(=O)[C@H](CC(C)C)NC(=O)[C@H](Cc1ccc(O)cc1)NC(=O)[C@H](CO)NC(=O)[C@H](CO)NC(=O)[C@@H](NC(=O)[C@H](CC(=O)O)NC(=O)[C@H](CO)NC(=O)[C@@H](NC(=O)[C@H](Cc1ccccc1)NC(=O)[C@@H](NC(=O)CNC(=O)[C@H](CCC(=O)O)NC(=O)[C@H](C)NC(=O)[C@@H](N)Cc1cnc[nH]1)[C@@H](C)O)[C@@H](C)O)C(C)C)C(=O)N[C@@H](CCC(=O)O)C(=O)N[C@@H](Cc1ccccc1)C(=O)N[C@H](C(=O)N[C@@H](C)C(=O)N[C@@H](Cc1c[nH]c2ccccc12)C(=O)N[C@@H](CC(C)C)C(=O)N[C@H](C(=O)N[C@@H](CCCNC(=N)N)C(=O)NCC(=O)N[C@@H](CCCNC(=N)N)C(=O)NCC(=O)O)C(C)C)[C@@H](C)CC)C(=O)O [liraglutide, Arg34,Lys26-(N-epsilon-(gamma-L-glutamyl(N-alfa-hexadecanoyl)))-GLP-1(7-37)]
0.1 mg/mL: Peptide concentration after 5 min (MeCN 0.0% w/w, pH 3.0, RT) | Peptide concentration after 180 min (MeCN 0.0% w/w, pH 3.0, RT) | Peptide concentration after 5 min (MeCN 0.0% w/w, pH 3.6, RT) | Peptide concentration after 180 min (MeCN 0.0% w/w, pH 3.6, RT) | Peptide concentration after 5 min (MeCN 0.0% w/w, pH 4.3, 5° C.) | Peptide concentration after 180 min (MeCN 0.0% w/w, pH 4.3, 5° C.) | Peptide concentration after 5 min (MeCN 0.0% w/w, pH 4.3, RT) | Peptide concentration after 180 min (MeCN 0.0% w/w, pH 4.3, RT) | Peptide concentration after 180 min (MeCN 0.0% w/w, pH 4.9, 5° C.) | Peptide concentration after 5 min (MeCN 0.0% w/w, pH 5.6, 5° C.) | Peptide concentration after 180 min (MeCN 0.0% w/w, pH 5.6, 5° C.) | Peptide concentration after 24 h (MeCN 0.0% w/w, pH 5.6, 5° C.) | Peptide concentration after 5 min (MeCN 0.0% w/w, pH 6.2, 5° C.) | Peptide concentration after 180 min (MeCN 0.0% w/w, pH 6.2, 5° C.) | Peptide concentration after 5 min (MeCN 6.4% w/w, pH 3.0, 5° C.) | Peptide concentration after 24 h (MeCN 6.4% w/w, pH 3.0, RT) | Peptide concentration after 5 min (MeCN 6.4% w/w, pH 3.6, 5° C.) | Peptide concentration after 180 min (MeCN 6.4% w/w, pH 3.6, 5° C.) | Peptide concentration after 24 h (MeCN 6.4% w/w, pH 3.6, RT) | Peptide concentration after 5 min (MeCN 6.4% w/w, pH 4.3, 5° C.) | Peptide concentration after 180 min (MeCN 6.4% w/w, pH 4.3, 5° C.)
2.8 mg/mL: Peptide concentration after 180 min (MeCN 0.0% w/w, pH 9.0, 5° C.)
1.3 mg/mL: Peptide concentration after 5 min (MeCN 12.7% w/w, pH 8.0, 5° C.)
>4.0 mg/mL: Peptide concentration after 24 h (MeCN 0.0% w/w, pH 6.9, 5° C.) | Peptide concentration after 24 h (MeCN 0.0% w/w, pH 6.9, RT) | Peptide concentration after 24 h (MeCN 0.0% w/w, pH 7.5, 5° C.) | Peptide concentration after 24 h (MeCN 0.0% w/w, pH 7.5, RT) | Peptide concentration after 24 h (MeCN 0.0% w/w, pH 8.0, 5° C.) | Peptide concentration after 24 h (MeCN 0.0% w/w, pH 8.5, 5° C.) | Peptide concentration after 24 h (MeCN 0.0% w/w, pH 9.0, 5° C.) | Peptide concentration after 24 h (MeCN 0.0% w/w, pH 9.5, 5° C.) | Peptide concentration after 24 h (MeCN 0.0% w/w, pH 10.0, 5° C.) | Peptide concentration after 24 h (MeCN 0.0% w/w, pH 10.5, 5° C.) | Peptide concentration after 24 h (MeCN 0.0% w/w, pH 11.0, 5° C.) | Peptide concentration after 24 h (MeCN 6.4% w/w, pH 8.0, 5° C.) | Peptide concentration after 24 h (MeCN 6.4% w/w, pH 8.5, 5° C.) | Peptide concentration after 24 h (MeCN 6.4% w/w, pH 9.0, 5° C.) | Peptide concentration after 24 h (MeCN 6.4% w/w, pH 9.5, 5° C.) | Peptide concentration after 24 h (MeCN 6.4% w/w, pH 10.0, 5° C.) | Peptide concentration after 24 h (MeCN 6.4% w/w, pH 10.5, 5° C.) | Peptide concentration after 24 h (MeCN 6.4% w/w, pH 11.0, 5° C.) | Peptide concentration after 24 h (MeCN 12.7% w/w, pH 8.0, 5° C.) | Peptide concentration after 24 h (MeCN 12.7% w/w, pH 8.5, 5° C.) | Peptide concentration after 24 h (MeCN 12.7% w/w, pH 9.0, 5° C.) | Peptide concentration after 24 h (MeCN 12.7% w/w, pH 9.5, 5° C.) | Peptide concentration after 24 h (MeCN 12.7% w/w, pH 10.0, 5° C.) | Peptide concentration after 24 h (MeCN 12.7% w/w, pH 10.5, 5° C.) | Peptide concentration after 24 h (MeCN 12.7% w/w, pH 11.0, 5° C.) | Peptide concentration after 24 h (MeCN 19.1% w/w, pH 8.0, 5° C.)
2.1 mg/mL: Peptide concentration after 180 min (MeCN 0.0% w/w, pH 8.0, 5° C.) | Peptide concentration after 180 min (MeCN 12.7% w/w, pH 8.5, 5° C.) | Peptide concentration after 180 min (MeCN 12.7% w/w, pH 10.5, 5° C.)
0.0 mg/mL: Peptide concentration after 24 h (MeCN 0.0% w/w, pH 4.3, RT) | Peptide concentration after 24 h (MeCN 0.0% w/w, pH 5.6, RT)
2.3 mg/mL: Peptide concentration after 180 min (MeCN 12.7% w/w, pH 10.0, 5° C.)
1.0 mg/mL: Peptide concentration after 5 min (MeCN 6.4% w/w, pH 9.0, 5° C.) | Peptide concentration after 5 min (MeCN 6.4% w/w, pH 10.0, 5° C.) | Peptide concentration after 5 min (MeCN 19.1% w/w, pH 8.0, 5° C.)
0.2 mg/mL: Peptide concentration after 5 min (MeCN 0.0% w/w, pH 4.9, 5° C.) | Peptide concentration after 5 min (MeCN 0.0% w/w, pH 11.0, 5° C.) | Peptide concentration after 180 min (MeCN 6.4% w/w, pH 3.0, 5° C.) | Peptide concentration after 24 h (MeCN 6.4% w/w, pH 3.6, 5° C.) | Peptide concentration after 24 h (MeCN 6.4% w/w, pH 4.3, 5° C.)
2.9 mg/mL: Peptide concentration after 180 min (MeCN 0.0% w/w, pH 8.5, 5° C.) | Peptide concentration after 180 min (MeCN 0.0% w/w, pH 10.5, 5° C.) | Peptide concentration after 180 min (MeCN 6.4% w/w, pH 9.0, 5° C.)
3.1 mg/mL: Peptide concentration after 180 min (MeCN 0.0% w/w, pH 10.0, 5° C.) | Peptide concentration after 180 min (MeCN 6.4% w/w, pH 10.0, 5° C.)
0.3 mg/mL: Peptide concentration after 5 min (MeCN 0.0% w/w, pH 8.5, 5° C.) | Peptide concentration after 5 min (MeCN 0.0% w/w, pH 9.0, 5° C.) | Peptide concentration after 24 h (MeCN 6.4% w/w, pH 3.0, 5° C.)
2.2 mg/mL: Peptide concentration after 180 min (MeCN 6.4% w/w, pH 8.0, 5° C.) | Peptide concentration after 180 min (MeCN 12.7% w/w, pH 8.0, 5° C.)
2.5 mg/mL: Peptide concentration after 180 min (MeCN 6.4% w/w, pH 9.5, 5° C.)
2.6 mg/mL: Peptide concentration after 180 min (MeCN 0.0% w/w, pH 7.5, 5° C.) | Peptide concentration after 180 min (MeCN 0.0% w/w, pH 9.5, 5° C.) | Peptide concentration after 180 min (MeCN 6.4% w/w, pH 8.5, 5° C.) | Peptide concentration after 180 min (MeCN 6.4% w/w, pH 10.5, 5° C.)
1.1 mg/mL: Peptide concentration after 5 min (MeCN 12.7% w/w, pH 10.5, 5° C.)
1.6 mg/mL: Peptide concentration after 180 min (MeCN 0.0% w/w, pH 11.0, 5° C.)
1.9 mg/mL: Peptide concentration after 180 min (MeCN 12.7% w/w, pH 9.5, 5° C.)
0.5 mg/mL: Peptide concentration after 5 min (MeCN 0.0% w/w, pH 8.0, 5° C.) | Peptide concentration after 5 min (MeCN 0.0% w/w, pH 10.5, 5° C.)
0.7 mg/mL: Peptide concentration after 5 min (MeCN 6.4% w/w, pH 10.5, 5° C.) | Peptide concentration after 5 min (MeCN 6.4% w/w, pH 11.0, 5° C.)
0.8 mg/mL: Peptide concentration after 5 min (MeCN 6.4% w/w, pH 8.0, 5° C.) | Peptide concentration after 5 min (MeCN 6.4% w/w, pH 8.5, 5° C.) | Peptide concentration after 5 min (MeCN 12.7% w/w, pH 8.5, 5° C.) | Peptide concentration after 5 min (MeCN 12.7% w/w, pH 9.0, 5° C.) | Peptide concentration after 5 min (MeCN 12.7% w/w, pH 10.0, 5° C.)
1.7 mg/mL: Peptide concentration after 180 min (MeCN 6.4% w/w, pH 11.0, 5° C.)
0.4 mg/mL: Peptide concentration after 5 min (MeCN 0.0% w/w, pH 6.9, 5° C.) | Peptide concentration after 5 min (MeCN 0.0% w/w, pH 9.5, 5° C.) | Peptide concentration after 5 min (MeCN 0.0% w/w, pH 10.0, 5° C.)
2.0 mg/mL: Peptide concentration after 180 min (MeCN 0.0% w/w, pH 6.9, 5° C.)
1.8 mg/mL: Peptide concentration after 180 min (MeCN 12.7% w/w, pH 9.0, 5° C.)
1.5 mg/mL: Peptide concentration after 180 min (MeCN 12.7% w/w, pH 11.0, 5° C.)
2.7 mg/mL: Peptide concentration after 180 min (MeCN 19.1% w/w, pH 8.0, 5° C.)
0.6 mg/mL: Peptide concentration after 5 min (MeCN 0.0% w/w, pH 7.5, 5° C.) | Peptide concentration after 5 min (MeCN 6.4% w/w, pH 9.5, 5° C.) | Peptide concentration after 5 min (MeCN 12.7% w/w, pH 11.0, 5° C.)
0.9 mg/mL: Peptide concentration after 5 min (MeCN 12.7% w/w, pH 9.5, 5° C.)
